According to patent US20220289668A1 (PHARMALEADS, priority 2019, published 2022):

Assays:
[1] = target: T1, Neprilysin (NEP), purified from rabbit kidney (Oryctolagus cuniculus, UniProt P08049); experiment: Neprilysin (NEP) assay, fluorigenic substrate Dansyl-Gly-(NO2)Phe-β-Ala; format: biochemical; details: rabbit kidney NEP 200 ng/mL, substrate 20 μM, 50 mM Tris pH 7.4, 37° C.; read-out: NEP (nM), inhibitory power Ki
T1 construct: Neprilysin, purified from rabbit kidney; from tissue; host or cells: rabbit kidney
T1 sequence (P08049 1-750): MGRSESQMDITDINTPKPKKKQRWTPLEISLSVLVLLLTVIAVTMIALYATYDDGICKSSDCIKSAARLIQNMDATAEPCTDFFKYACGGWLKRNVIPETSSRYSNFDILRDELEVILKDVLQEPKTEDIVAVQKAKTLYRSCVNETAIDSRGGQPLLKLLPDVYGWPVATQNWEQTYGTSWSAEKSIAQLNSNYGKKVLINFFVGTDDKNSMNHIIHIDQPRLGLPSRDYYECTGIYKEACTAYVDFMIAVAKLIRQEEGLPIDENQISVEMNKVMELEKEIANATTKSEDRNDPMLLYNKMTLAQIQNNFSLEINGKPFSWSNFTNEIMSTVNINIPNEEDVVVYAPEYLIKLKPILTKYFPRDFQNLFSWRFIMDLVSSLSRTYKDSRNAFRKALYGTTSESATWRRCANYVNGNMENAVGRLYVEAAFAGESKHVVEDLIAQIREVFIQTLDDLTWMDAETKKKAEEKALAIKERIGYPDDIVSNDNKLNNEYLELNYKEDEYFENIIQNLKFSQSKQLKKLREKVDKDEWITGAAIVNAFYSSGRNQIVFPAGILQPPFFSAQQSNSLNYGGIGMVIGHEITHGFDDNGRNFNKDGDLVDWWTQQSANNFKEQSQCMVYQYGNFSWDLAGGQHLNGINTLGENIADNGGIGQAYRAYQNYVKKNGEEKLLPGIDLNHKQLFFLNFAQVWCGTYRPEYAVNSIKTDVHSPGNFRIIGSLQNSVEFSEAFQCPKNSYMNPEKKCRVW
Experimental: (§1) The claimed inhibitors were tested on different Zn^2+ peptidases representative of this family of enzymes, capable of inhibiting them, such as type 1 neprilysin (E.C.3.4.24.11, NEP-1), neutral aminopeptidase (E.C.3.4.11.2, APN) and LTA4H.
(§2) The assays are carried out on […] in the presence of fluorigenic substrates specific for each enzyme.
(§3) Generally speaking, the inhibitors are pre-incubated, in increasing concentrations, with the enzyme for 10 min, at 37° C. The substrate is then added and the mixture is incubated for 30 to 60 min at 37° C. The reaction is stopped at 4° C. and the reading of the fluorescence emitted is done by reading the Berthold Twinkle LS970B plate. An inhibition curve is then plotted as a function of the concentration of inhibitor using GraphPad software, then the Ki is determined from the Cheng Prusoff formula: Ki=IC50/(1+(S/Km)).
Neprilysin, purified from rabbit kidney (Aubry M et al. (1987), Biochem Cell Biol 65, 398-404), is used at final 200 ng/mL in 50 mM Tris buffer pH 7.4. The substrate, Dansyl-Gly-(NO2)Phe-β-Ala (Goudreau N et al. (1994), Anal Biochem, 219, 87-95) (Km=37 μM), is dissolved in ethanol and is used at final 20 μM. Increasing concentrations (from 10^−10 to 10^−3 M) of inhibitors are pre-incubated for 15 min at 37° C. with NEP in 50 mM Tris buffer, pH 7.4. The substrate is next added and the incubation is continued for 60 min. The reaction is stopped by placing the plate in ice for 10 min. The reading of the fluorescence emitted is carried out in a fluorimeter at λex=355 nm, λem=535 nm.

[2] = target: T2, aminopeptidase N (APN), recombinant human enzyme (Homo sapiens, UniProt P15144); experiment: Neutral aminopeptidase (APN) assay, substrate L-Ala-β-NA; format: biochemical; details: APN-rh 50 ng/mL, substrate 50 μM, 50 mM Tris pH 7.4, 37° C.; read-out: APN (nM), inhibitory power Ki
T2 construct: purchased R&D System
Experimental: as §1, §2, §3
The measurement of the inhibition of aminopeptidase N (APN) is carried out by use of the substrate L-Ala↓β-NA (50 μM, Sigma Aldrich). The inhibitory powers are determined by using recombinant human enzyme (rh) (50 ng/mL; R&D System). Increasing concentrations (from 10^−10 to 10^−3 M) of inhibitors are pre-incubated for 30 min at 37° C. with APN-rh in 50 mM Tris buffer, pH 7.4. The substrate is next added and the incubation is continued for 30 min at 37° C. The reaction is stopped by placing the plate in ice for 10 min. The reading of the emitted fluorescence is measured in a fluorimeter at λex=340 nm, λem=405 nm.

[3] = target: T3, LTA4H (Homo sapiens, UniProt P09960); experiment: LTA4 hydrolase assay, substrate (L)-Ala-β-naphthylamide; format: biochemical; details: recombinant enzyme 0.6 μg/mL, substrate 1 mM, 50 mM Tris HCl pH 7.4, 100 mM NaCl, 37° C.; read-out: LTA4H (nM), inhibitory power Ki
T3 sequence (P09960 1-611): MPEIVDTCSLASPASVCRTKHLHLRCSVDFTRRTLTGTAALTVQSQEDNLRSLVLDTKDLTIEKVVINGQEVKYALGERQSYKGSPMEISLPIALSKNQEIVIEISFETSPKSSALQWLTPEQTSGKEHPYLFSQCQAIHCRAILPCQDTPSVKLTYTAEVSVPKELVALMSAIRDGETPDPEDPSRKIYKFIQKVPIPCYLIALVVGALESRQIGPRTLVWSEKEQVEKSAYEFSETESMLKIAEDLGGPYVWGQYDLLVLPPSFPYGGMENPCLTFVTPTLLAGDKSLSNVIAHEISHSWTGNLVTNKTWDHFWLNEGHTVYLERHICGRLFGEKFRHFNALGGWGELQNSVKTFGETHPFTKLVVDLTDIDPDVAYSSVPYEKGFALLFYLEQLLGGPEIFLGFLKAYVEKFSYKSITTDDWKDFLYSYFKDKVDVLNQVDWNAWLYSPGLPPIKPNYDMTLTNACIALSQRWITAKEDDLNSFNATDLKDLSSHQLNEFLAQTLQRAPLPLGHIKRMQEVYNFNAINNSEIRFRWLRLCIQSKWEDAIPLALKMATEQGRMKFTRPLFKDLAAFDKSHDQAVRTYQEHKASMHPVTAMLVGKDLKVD
Experimental: as §1, §2, §3
To determine the Ki values of the different inhibitors with regard to LTA4H, 0.6 μg/mL of recombinant enzyme were incubated beforehand for 30 minutes at 37° C. in 50 mM Tris HCl, pH 7.4, 100 mM NaCl, with increasing concentrations of inhibitor (from 10^−10 M to 10^−4 M of final concentration). The fluorescent substrate (L)-Ala-β-naphthylamide (1 mM) is added in a final volume of 100 μL and is incubated at 37° C. for 15 minutes. The fluorescence values are measured on a Berthold Twinkle LB 970 (λex=340 nm, λem=405 nm, energy of the lamp 10000). Samples containing 0% hydrolysis were obtained by adding the substrate to the buffer and samples having a relative activity of 100% were prepared without inhibitor. The percentage cleavage was evaluated and compared with a relative activity of 100%, and the IC50 values were determined as a consequence. The Ki values of the inhibitors (average of at least three double independent assays) were calculated using the equation Ki=IC50/(1+[S]/Km).

[4] = system: male OF1 mice; experiment: Hot plate test on mice, intravenous administration; format: in vivo; details: for analgesic response: mice

T2 sequence (P15144 whole entry): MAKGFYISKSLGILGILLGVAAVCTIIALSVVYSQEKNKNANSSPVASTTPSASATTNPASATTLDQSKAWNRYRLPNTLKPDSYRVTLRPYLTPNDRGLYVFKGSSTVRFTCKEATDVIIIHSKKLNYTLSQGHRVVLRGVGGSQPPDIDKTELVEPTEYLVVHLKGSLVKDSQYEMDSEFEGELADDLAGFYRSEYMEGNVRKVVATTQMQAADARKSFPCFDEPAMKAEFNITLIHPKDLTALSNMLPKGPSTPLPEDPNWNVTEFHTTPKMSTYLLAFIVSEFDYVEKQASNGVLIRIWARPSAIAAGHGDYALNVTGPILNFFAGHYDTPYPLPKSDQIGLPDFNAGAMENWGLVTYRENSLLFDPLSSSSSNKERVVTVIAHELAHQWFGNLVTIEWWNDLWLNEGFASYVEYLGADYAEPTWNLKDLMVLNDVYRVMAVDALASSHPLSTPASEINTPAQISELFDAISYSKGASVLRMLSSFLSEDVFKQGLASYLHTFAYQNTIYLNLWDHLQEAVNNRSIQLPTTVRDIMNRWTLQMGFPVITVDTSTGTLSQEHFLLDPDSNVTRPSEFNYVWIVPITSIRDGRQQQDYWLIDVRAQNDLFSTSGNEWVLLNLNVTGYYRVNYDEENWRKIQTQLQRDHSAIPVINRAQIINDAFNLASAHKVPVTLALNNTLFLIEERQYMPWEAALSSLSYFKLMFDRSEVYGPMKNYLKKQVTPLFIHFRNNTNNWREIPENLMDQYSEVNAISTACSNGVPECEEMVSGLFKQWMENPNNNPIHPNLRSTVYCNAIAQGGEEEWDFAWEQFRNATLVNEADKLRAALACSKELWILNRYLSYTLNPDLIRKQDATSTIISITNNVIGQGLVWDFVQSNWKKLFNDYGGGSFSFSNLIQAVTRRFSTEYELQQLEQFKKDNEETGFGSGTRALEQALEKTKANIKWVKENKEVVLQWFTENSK

SMILES	Ki [1]	Ki [2]	Ki [3]	analgesic response ([4]; THC alone, 0.375 mg/kg intravenous)	analgesic response ([4]; Ib-1 10 mg/kg in association with THC 0.375 mg/kg, intravenous coadministration)	analgesic response ([4]; compound Ib-1 alone, 10 mg/kg intravenous, vehicle EtOH/Tween 80/Water (1/1/8))	analgesic effect of the association (in words) ([4]; intravenous association of THC and Ib-1 at inactive doses, 10 min after injection, male OF1 mice)
C[C@H](NC(=O)[C@H](Cc1ccc(-c2ccccc2)cc1)CN(O)C=O)C(=O)O	0.08 ± 0.01 nM	86 ± 8 nM	6.1 ± 0.7 nM	–	–	–	–
O=CN(O)C[C@H](Cc1ccccc1)C(=O)N[C@@H](Cc1ccccc1)C(=O)O [Ib-2, (S)-2-((S)-2-benzyl-3-(N-hydroxyformamido)propanamido)-3-phenylpropanoic Acid]	23.1 ± 1.1 nM	> 10000 nM	–	–	–	–	–
CCCCCc1cc(O)c2c(c1)OC(C)(C)[C@@H]1CCC(C)=C[C@@H]21 [THC, reference compound]	–	–	–	12%	–	–	–
C[C@H](NC(=O)[C@@H](Cc1ccccc1)CN(O)C=O)C(=O)O [Ia-2, (S)-2-((S)-2-benzyl-3-(N-hydroxyformamido)propanamido) propanoic Acid]	17.7 ± 0.9 nM	> 10000 nM	–	–	–	–	–
O=CN(O)C[C@@H](Cc1ccccc1)C(=O)N[C@H](CC(=O)O)Cc1ccccc1 [Ic-1, (S)-3-((R)-2-benzyl-3-(N-hydroxyformamido)propanamido)-4-phenyl butanoic Acid]	6.3 ± 0.3 nM	12 ± 1.7 nM	443 ± 75 nM	–	–	–	–
O=CN(O)C[C@@H](Cc1ccccc1)C(=O)N[C@@H](Cc1ccccc1)C(=O)O [Ib-1, (S)-2-((R)-2-benzyl-3-(N-hydroxyformamido)propanamido)-3-phenylpropanoic Acid]	0.5 ± 0.1 nM	24 ± 0.4 nM	26 ± 2 nM	–	65%	10%	considerable synergic analgesic effect
C[C@H](NC(=O)[C@@H](Cc1ccc(-c2ccccc2)cc1)CN(O)C=O)C(=O)O	44.1 ± 2.2 nM	817 ± 80 nM	> 10000 nM	–	–	–	–
C[C@H](NC(=O)[C@H](Cc1ccccc1)CN(O)C=O)C(=O)O [Ia-1, (S)-2-((R)-2-benzyl-3-(N-hydroxyformamido)propanamido) propanoic Acid]	3.3 ± 0.7 nM	143 ± 9 nM	7.5 ± 0.4 nM	–	–	–	–
